Measurements from patent US9718825B2, “N-(4-(azaindazol-6-yl)-phenyl)-sulfonamides and their use as pharmaceuticals” (priority 2013, dated 2017).
Where two headings read alike, the source gives them in different places.

Assays:
[1] = biological target: recombinant human SGK-1 enzyme (Homo sapiens, UniProt O00141); assay: Enzymatic activity assay: SGK-1 substrate peptide phosphorylation (Caliper lab-chip mobility shift); format: biochemical
[2] = system: collagen type X (Col10a1) expression in mouse chondrogenic ATDC5 cells; assay: Chondrocyte hypertrophic differentiation in mouse chondrogenic ATDC5 cells (collagen type X expression); format: cell-based; settings: Col10a1 expression by quantitative real-time PCR after two weeks of cell culture; read-out: IC50 values for the inhibition of collagen type X expression in mouse chondrogenic ATDC5 cells
Source text: D) Determination of the effect on chondrocyte hypertrophic differentiation in mouse chondrogenic ATDC5 cells
The ATDC5 cell assay was used as in vitro model to determine the effects of the compounds of the invention on chondrocyte hypertrophic differentiation by monitoring the expression levels of collagen type X (Col10a1) as specific marker of chondrocyte hypertrophy.
Background: ATDC5 cells are a clonal mouse embryonic cell line derived from multipotent AT805 teratocarcinoma cells (Atsumi, T. et al., A chondrogenic cell line derived from a differentiating culture of AT805 teratocarcinoma cells, Cell Differ. Dev. 1990, 30, 109-116). The cells can undergo insulin-dependent chondrogenic cell differentiation entailing distinct differentiation stages starting from an undifferentiated, subconfluent stage, a condensation stage, a cartilage nodule formation stage and a calcification stage within 45 days of in vitro culture. Chondrogenic differentiation can be shown by measuring the expression of the cartilage main collagen (Col2a1) and aggrecan (AGC1) and glycosaminoglycan-staining with Alcian Blue within two weeks after insulin-triggered differentiation, and hypertrophic differentiation can be monitored by the expression of collagen type X (Col10a1), a specific marker of chondrocyte hypertrophy within 21 days of in vitro culture. (Shukunami, C. et al., Chondrogenic Differentiation of Clonal Mouse Embryonic Cell Lne ATDC5 In Vitro: Differentiation-dependent Gene Expression of Parathyroid Hormone (PTH)/PTH-related Peptide Receptor, J. Cell Biol. 1996, 133, 457-468). Growth factor BMP-2 is known to stimulate cell differentiation and can stimulate early and late-phase ATDC5 differentiation (Shukunami, C. et al., Sequential Progression of the Differentiation Program by Bone Morphogenetic Protein-2 in Chondrogenic Cell Line ATDC5, Exp. Cell Res. 1998, 241, 1-11). Thyroid hormone triiodothyronine (T3) promotes hypertrophic differentiation of growth plate chondrocytes (Robson, H. et al., Thyroid Hormone Acts Directly on Growth Plate Chondrocytes to Promote Hypertrophic Differentiation and Inhibit Clonal Expansion and Cell Proliferation, Endocrinology 2000, 141, 3887-3897). Addition of BMP2 and T3 can accelerate ATDC5 hypertrophic differentiation leading to the strong induction Col10a1 expression between 10-14 days. SGK-inhibitors were added to differentiating ATDC5 cells for 14 days and Col10a1 gene expression was quantified to determine effects on chondrocyte hypertrophic differentiation.
Cell assay description: ATDC5 cells were maintained in 300 cm^2 tissue culture flasks in DMEM/Ham's F12+5% FCS supplemented with 10 μg/ml human transferrin, 30 nM sodium selenite, 50 μg/ml kanamycin and grown at 37° C. in 5% CO2 in 95% air. To initiate cell differentiation, 9.9×10^4 cells were plated in 24 well plates and grown for 2 days. Medium was exchanged with DMEM/Ham's F12+5% FCS supplemented with 10 μg/ml human transferrin, 30 nM sodium selenite, 50 μg/ml ascorbic acid and 1 μg/ml BMP2. The assay was run in triplicates, compounds were added in […], and medium changed every 2-3 days including supplementation of compound. At day 7 after initiation of cell differentiation, 1 μM T3 was used as additional supplement in the cell culture.
After two weeks of cell culture, RNA was isolated and converted to cDNA for determination of gene expression by quantitative real-time PCR. Cells were lysed in 600 μl of RLT-buffer (Qiagen) and total RNA was isolated using the RNA-easy Mini RNA isolation Kit (Qiagen) which was run on a Qiacube system (Qiagen) according to the supplier's instructions. RNA was isolated in 30 μl of pure water and the RNA content measured by UV-spectroscopy (Nanodrop, Peqlab). For cDNA synthesis 50 ng total RNA was reverse transcribed using the High Capacity cDNA Reverse Transcription Kit (Applied Biosystems, Product Number 4368813) according to the manufacturer's instructions. […]

[3] = system: SGK-1 dependent phosphorylation of GSK3beta in U2OS cells; assay: SGK-1 dependent phosphorylation of GSK3beta in U2OS cells overexpressing recombinant SGK-1 and GSK3beta; format: cell-based, human; settings: U2OS cells, 6 h incubation, ratio of phosphorylated GSK3beta to total GSK3beta, read-out: IC50 values for inhibition of SGK-1 dependent phosphorylation of GSK3beta in U2OS cells
[4] = peptide substrate 1 μM, ATP 10 μM, 60 min at 37° C., read-out: IC50 values for inhibition of SGK-1 enzymatic activity
[5] = read-out: IC50 values for inhibition of SGK-1 enzymatic activity, peptide substrate 1 μM, ATP 10 μM, 60 min at 37° C.

Chain of recombinant human SGK-1 enzyme (O00141 whole entry, looked up): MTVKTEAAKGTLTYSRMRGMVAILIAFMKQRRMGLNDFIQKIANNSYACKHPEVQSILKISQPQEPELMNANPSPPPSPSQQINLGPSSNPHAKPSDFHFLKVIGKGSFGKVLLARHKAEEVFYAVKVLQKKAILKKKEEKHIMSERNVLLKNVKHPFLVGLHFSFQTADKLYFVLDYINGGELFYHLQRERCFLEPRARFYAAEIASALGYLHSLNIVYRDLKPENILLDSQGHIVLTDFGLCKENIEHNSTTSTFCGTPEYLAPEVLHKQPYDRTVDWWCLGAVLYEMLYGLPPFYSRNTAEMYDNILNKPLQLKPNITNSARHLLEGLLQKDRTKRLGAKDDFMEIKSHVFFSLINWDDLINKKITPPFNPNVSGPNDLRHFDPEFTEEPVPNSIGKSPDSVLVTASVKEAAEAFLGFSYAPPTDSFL

Compound	IC50 [1, 4] [nM]	IC50 [2] [nM]	IC50 [3] [nM]	IC50 [1, 5] [nM]	IC50 ([3]; Homo sapiens) [nM]
COCCCN1CCC(Oc2nc(-c3ccc(NS(=O)(=O)c4cc(F)ccc4F)cc3)nc3[nH]ncc23)CC1 [Example 394]	120	290	–	–	–
CCN1CCCC(Oc2nc(-c3ccc(NS(=O)(=O)c4cc(Cl)ccc4F)cc3)nc3[nH]nc(C)c23)C1 (stereo not shown) [Example 418]	40	30	–	–	–
Cc1n[nH]c2nc(-c3ccc(NS(=O)(=O)c4cc(F)ccc4F)cc3)nc(OC3CCN(C4CCC4)CC3)c12 [Example 398]	25	7.2	–	–	–
CCN1CCCC(Oc2nc(-c3ccc(NS(=O)(=O)c4cc(Cl)ccc4Cl)cc3)nc3[nH]nc(C)c23)C1 (stereo not shown) [Example 422]	40	110	–	–	–
COc1ccc(F)c(S(=O)(=O)Nc2ccc(-c3nc(OC4CCN(C(C)C)CC4)c4c(C)n[nH]c4n3)cc2)c1 [Example 357]	3.6	61	–	–	–
Cc1n[nH]c2nc(-c3ccc(NS(=O)(=O)c4cc(F)ccc4F)cc3)nc(OC3CCN(CCF)CC3)c12 [Example 344]	5	16	–	–	–
CCOc1nc(-c2ccc(NS(=O)(=O)c3cc(Cl)ccc3Cl)cc2)nc2[nH]nc(C)c12 [Example 426]	11	60	–	–	–
O=S(=O)(Nc1ccc(-c2nc(OCCO)c3cn[nH]c3n2)cc1)c1cc(Cl)ccc1F [Example 32]	5.1	280	–	–	–
Cc1n[nH]c2nc(-c3ccc(NS(=O)(=O)c4cc(Cl)ccc4Cl)cc3)nc(OCCCO)c12 [Example 378]	5.8	57	–	–	–
Cc1ccc(F)c(S(=O)(=O)Nc2ccc(-c3nc(OC4CCN(C(C)C)CC4)c4c(C)n[nH]c4n3)cc2)c1 [Example 353]	3.8	21	–	–	–
O=S(=O)(Nc1ccc(-c2nc(O[C@H]3CC[C@@H](O)CC3)c3cn[nH]c3n2)cc1)c1cc(Cl)ccc1F [Example 79]	–	25	–	–	–
N#Cc1ccc(Cl)cc1S(=O)(=O)Nc1ccc(-c2nc(OC3CNC3)c3cn[nH]c3n2)cc1 [Example 191]	21	–	2700	–	–
Cc1ccc(C#N)c(S(=O)(=O)Nc2ccc(-c3nc(CCCCl)c4cn[nH]c4n3)cc2)c1 [Example 146]	47	–	11000	–	–
Cc1ccc(F)c(S(=O)(=O)Nc2ccc(-c3nc(OC4CCNCC4F)c4c(C)n[nH]c4n3)cc2)c1 (stereo not shown) [Example 298]	2.3	–	43	–	–
Cc1n[nH]c2nc(-c3ccc(NS(=O)(=O)c4cc(Cl)ccc4F)cc3)nc(OC3CCCNC3)c12 (stereo not shown) [Example 339]	1.3	–	45	–	–
COc1ccc(C#N)c(S(=O)(=O)Nc2ccc(-c3ncc4c(N)n[nH]c4n3)cc2)c1 [Example 522]	2.4	–	290	–	–
COc1cc(-c2ncc3c(C)n[nH]c3n2)ccc1NS(=O)(=O)c1cc(Cl)ccc1Cl [Example 534, 2,5-Dichloro-N-[2-methoxy-4-(3-methyl-1H-pyrazolo[3,4-d]pyrimidin-6-yl)-phenyl]-benzenesulfonamide]	–	–	–	< 1.5	350
O=S(=O)(Nc1ccc(-c2nc(N3CCNCC3)c3cn[nH]c3n2)cc1)c1cccc(Cl)c1Cl [Example 15]	< 1.2	–	870	–	–
Cc1n[nH]c2nc(-c3ccc(NS(=O)(=O)c4cc(Cl)ccc4Cl)cc3)ncc12 [Example 1, 2,5-Dichloro-N-[4-(3-methyl-1H-pyrazolo[3,4-d]pyrimidin-6-yl)-phenyl]-benzenesulfonamide]	–	–	–	< 1.2	830
CC(C)(CO)COc1nc(-c2ccc(NS(=O)(=O)c3cc(Cl)ccc3F)cc2)nc2[nH]ncc12 [Example 57]	8.3	–	500	–	–

Compound	IC50 [1, 4] [nM]	IC50 [2] [nM]	IC50 [3] [nM]	IC50 [1, 5] [nM]	IC50 ([3]; Homo sapiens) [nM]
COc1ccc(Cl)c(S(=O)(=O)Nc2ccc(-c3nc(O[C@@H]4CCC(O)C4)c4cn[nH]c4n3)cc2)c1 (stereo partly shown) [Example 91]	< 1.5	–	180	–	–
COc1ccc(Cl)c(S(=O)(=O)Nc2ccc(-c3nc(OC)c4cn[nH]c4n3)cc2)c1 [Example 143]	10	–	100	–	–
CC(C)COc1nc(-c2ccc(NS(=O)(=O)c3cc(Cl)ccc3F)cc2)nc2[nH]nc(N)c12 [Example 334]	20	–	720	–	–
COc1ccc(Cl)c(S(=O)(=O)Nc2ccc(-c3nc(C)c4cn[nH]c4n3)cc2)c1 [Example 491]	1.8	–	2000	–	–
COc1ccc(C#N)c(S(=O)(=O)Nc2ccc(-c3nc(OC4CCC(O)CC4)c4cn[nH]c4n3)cc2)c1 (stereo not shown) [Example 134]	< 1.5	–	640	–	–
COc1ccc(Cl)c(S(=O)(=O)Nc2ccc(-c3nc(OC4CCCNC4)c4c(C)n[nH]c4n3)cc2)c1 (stereo not shown) [Example 319]	4.5	–	31	–	–
Cc1nc(-c2ccc(NS(=O)(=O)c3ccccc3F)cc2)nc2[nH]nc(N)c12 [Example 169]	110	–	250	–	–
Cc1nc(-c2ccc(NS(=O)(=O)c3cc4c(cc3Cl)OCCCO4)cc2)nc2[nH]nc(N)c12 [Example 476]	3.9	–	3000	–	–
Cc1nc(-c2ccc(NS(=O)(=O)c3cc(Cl)ccc3C#N)cc2)nc2[nH]nc(N3CCCC4(COC4)C3)c12 [Example 499]	8.9	–	8800	–	–
O=S(=O)(Nc1ccc(-c2nc(N[C@H]3CC[C@@H](O)CC3)c3cn[nH]c3n2)cc1)c1cc(Cl)ccc1Cl [Example 78]	3.6	–	2600	–	–
Cc1ccc(C#N)c(S(=O)(=O)Nc2ccc(-c3nc(OCC(F)(F)F)c4c(N)n[nH]c4n3)cc2)c1 [Example 193]	2	–	160	–	–
Nc1n[nH]c2cc(-c3ccc(NS(=O)(=O)c4cc(Cl)sc4Cl)cc3)ncc12 [Example 558]	13	–	520	–	–
O=S(=O)(Nc1ccc(-c2nc(OCC3CNC3)c3cn[nH]c3n2)cc1)c1cc(Cl)ccc1F [Example 198]	< 1.5	–	510	–	–
NCCCOc1nc(-c2ccc(NS(=O)(=O)c3cc(F)ccc3F)cc2)nc2[nH]ncc12 [Example 199]	26	–	640	–	–
Cc1ccc(C#N)c(S(=O)(=O)Nc2ccc(-c3nc(OCC4CNCCO4)c4cn[nH]c4n3)cc2)c1 (stereo not shown) [Example 315]	7.9	–	600	–	–
Cc1nc(-c2ccc(NS(=O)(=O)c3cccc(Cl)c3F)cc2)nc2[nH]nc(N)c12 [Example 171]	40	–	870	–	–
Cc1ccc(F)c(S(=O)(=O)Nc2ccc(-c3nc(N4CC(CO)C4)c4cn[nH]c4n3)cc2)c1 [Example 109]	16	–	4600	–	–
Cc1n[nH]c2nc(-c3ccc(NS(=O)(=O)c4cc(F)ccc4F)cc3)nc(OCC3CNCCO3)c12 (stereo not shown) [Example 292]	14	–	930	–	–
COc1nc(-c2ccc(NS(=O)(=O)c3cc(Cl)cc(F)c3F)cc2)nc2[nH]ncc12 [Example 178]	350	–	800	–	–
Cc1n[nH]c2nc(-c3ccc(NS(=O)(=O)c4cc(Cl)ccc4F)cc3)nc(OCCCN)c12 [Example 209]	< 1.5	–	100	–	–
